From US12351565B2, “Aromatic compound and preparation method therefor and use thereof” (SHANGHAI JIANHE PHARMACEUTICAL & TECHNOLOGY CO. LTD., priority 2018, dated 2025)
Read-outs that look alike come from different tables or passages of the source.

Key:
[1] = rats, literature (Journal of Psychopharmacology, 2019, 33, 12-24), cited from earlier work
[2] = In vivo pharmacokinetic experiment in mice; conditions: C57 mice; for AUC0-t / AUC0-∞ / MRT / half-life / clearance / Vd / Cmax / Tmax: plasma; for F: 20 mg/kg p.o. vs 5 mg/kg i.v.; for MRT / half-life / clearance / Vd / Cmax / Tmax: male, mouse; for Vd: read-out: Vss
Experimental: Healthy male C57 mice were randomly divided into groups with 3 mice in each group, and the test compounds were administrated intragastrically or by intravenous injection. See Table 6 below for specific arrangements:
(§1) Each test compound was dissolved in physiological saline to prepare a certain concentration of solution for administration.
(§2) One day before administration, the mice were fasted and allowed to drink freely for 12-14 h. The mice were fed 4 h after administration.
0.030 mL of blood was took from each animal each time through the orbit, and anticoagulated with EDTAK2. The collection time points were as follows: in PO group, 5 min, 15 min, 30 min, 1 h, 2 h, 4 h, 6 h, 8 h, 24 h after administration of test substance; in IV group, 2 min, 5 min, 15 min, 30 min, 1 h, 2 h, 4 h, 6 h, 8 h, 24 h after administration of test substance. After blood samples were collected, they were placed on ice and centrifuged to separate the plasma within 30 minutes (centrifugation conditions: 5000 rpm, 10 minutes, 4° C.). The sample were stored at −80° C. before analysis.

C57 mice [3] = experiment: Forced swimming experiment, oral administration to mice; type: in vivo; conditions: C57 mice
Experimental: 1 h and 24 h after a single oral administration of 20 mg/kg, forced swimming experiments were then carried out to investigate the effects of different compounds on depression-like behavior in C57 mice.
(§3) Experimental animals were 6-week aged C57 mice, male, C57 mice were purchased from Shanghai SLAC Laboratory Animal Co., Ltd., with a body weight of 20.45±0.19 g. Before the experiment, they arrived at the Animal Feeding Center of Shanghai Institute of Materia Medica, Chinese Academy of Sciences (Animal Production License: SCXK9[Shanghai]2004-0002, usage license: SYXK[Shanghai]2003-0029), and adapted for 3 days or more in animal facilities. They were bred at 6 animals/cage. The breeding environment was room temperature 23±0.2° C., with 12/12 hours alternation of day and night. Before the behavioral test, the animals should be moved to the behavioral test operation room 2 hours in advance to adapt to the environment and reduce their tension.
Preparation of the test product: each test compound was accurately weighed and dissolved in 0.9% NaCl solution, mixed thoroughly, and prepared into 1 mg/ml and 2 mg/ml solutions respectively, and set aside.
(§4) 24 hours before the administration, the mice were placed in a cylindrical tank to adapt to the aquatic environment for 10 min. On the day of the behavioral test, the animals were respectively administered intragastrically once at 1 h and 24 h before the behavioral test. The mice were placed individually into a cylindrical glass tank with a height of 30 cm and a diameter of 20 cm. The water depth in the tank was 15 cm, so that the animals could not escape from the glass tank and their feet and tails could not touch the bottom of the tank, the water temperature was 23° C.-25° C. A 6 minute video was taken after the mouse entered into water. Since most animals were very active in the first two minutes, the immobility time in the following 4 minute were calculated (criterion of immobility: the mouse stops struggling in the water, stays still and has small limbs movement to maintain balance or to keep a floating state).
(§5) The antidepressant effect of a compound was evaluated by the ability of the compound to reduce the immobility time of the animal in the forced swimming test as compared with the blank group. Inhibition rate1 h(%)=immobility time(blank, 1 h)−immobility time(administration, 1 h)/immobility time(blank, 1 h)×100% Inhibition rate24h(%)=immobility time(blank, 24 h)−immobility time(administration, 24 h)/immobility time(blank, 24 h)×100%

[4] = cited from earlier work
C57 mice [5] = experiment: Forced swimming experiment, intraperitoneal administration to mice; type: in vivo; conditions: for inhibition in vivo at 10 mg/kg: Mus musculus, ip; for 1 h inhibition rate: forced swimming 1 h after single intraperitoneal 10 mg/kg
Experimental: The forced-swimming test is currently the most widely used classic method to evaluate the antidepressant effects of compounds in rodents. […] The time in immobile state of experimental animal is observed and recorded, which can be used to evaluate the effect of antidepressant compounds.
1 h and 24 h after a single intraperitoneal administration of 10 mg/kg, forced swimming tests were respectively carried out to investigate the effects of different compounds on depression-like behaviors of C57 mice.
as §3, with “male, and” for “male,”
Preparation of the test product: each test compound was accurately weighed and dissolved in 0.9% NaCl solution, mixed thoroughly, and prepared as a 1 mg/ml solution, set aside.
as §4, with “intraperitoneally” for “intragastrically”
as §5, with “group. The shorter the immobility time of the animal to be tested, the higher the inhibition rate and the stronger the antidepressant activity.” for “group.”, “rate24 h(%)=immobility” for “rate24h(%)=immobility”

[6] = in mice, background statement; cited from earlier work
hERG potassium channel = target: T1, hERG potassium channel (Homo sapiens, UniProt Q12809); experiment: hERG potassium channel inhibition experiment (automatic patch clamp, CHO-hERG cells); type: cell-based; conditions: Qpatch, highest tested concentration 40 μM, read-out: IC50, blocking effect on the hERG potassium current
T1 construct: expressed in transfected cells
Experimental: Fully automatic patch clamps were used to test the blocking effect of the compounds of the present invention on the hERG potassium current on a stable cell line transfected with hERG potassium channels.
CHO-hERG cells were cultured in 175 cm^2 culture flask. When the cell grew to 60-80% confluence, the culture medium was removed. The cells were washed with 7 ml PBS (Phosphate Buffered Saline) once, and then 3 ml Detachin was added to digest.
After the digestion was completed, 7 ml culture medium was added to neutralize. The mixture was centrifuged, and after the supernatant was removed, 5 ml culture medium was added to resuspend to ensure the cell density was 2×10^6-5×10^6/ml.
Single-cell high-impedance sealing and whole-cell mode formation were all automatically completed by using the Qpatch instrument. After the recording mode was obtained, the cell was clamped at −80 millivolts. Before +40 millivolt depolarization stimulation for 5 seconds was given, −50 millivolt pre-voltage for 50 millisecond was first given, then repolarized to −50 millivolt for 5 seconds, and then returned to −80 millivolt. This voltage stimulus was applied every 15 seconds. After recording for 2 min, extracellular fluid was given, and recording was conducted for 5 min, and then the dosing process started. The compound concentration started from the lowest test concentration, and each test concentration was given for 2.5 min. […] At least 3 cells per concentration (n≥3) were tested.
20 mM compound mother liquor was diluted with extracellular fluid. 5 μL of 20 mM compound mother liquor was taken and added into 2495 μL extracellular fluid, so that it was diluted 500 times to 40 μM, and was then serially diluted 3 times in an extracellular fluid containing 0.2% DMSO to obtain the final concentration to be tested.
The highest tested concentration was 40 μM, and the concentrations were in order as follows: 40, 13.33, 4.44, 1.48, 0.49, 0.16 μM, totally 6 concentrations.
Experimental data were analyzed by XLFit software.

[7] = Distribution in mouse brain tissue; type: in vivo, C57 mice; conditions: male, brain, po; C57 mouse, 10 mg/kg p.o., 30 min
Experimental: Healthy male C57 mice were randomly divided into groups with 3 mice in each group, and the test compound was administrated intragastrically. See Table 10 below for specific arrangements:
as §1, §2
After the animals were bled, the brain tissue was collected. After washing, 50% ice methanol was added for homogenate at 1:4 (m/v). The collection time points was 10 min, 15 min, 30 min, 1 h, 2 h after administration of the test substance; 30.0 μL of tissue sample was taken (the sample was taken out from the refrigerator at −80° C., vortexed for 30 seconds after natural melting at room temperature) and added into a 1.5 mL centrifuge tube. 300.0 μL internal standard solution (30 ng/mL […] acetonitrile solution) was added, the mixture was vortex for 60 seconds and then centrifuged for 3 minutes (centrifugal force was 12000 rpm); 75 μL of the supernatant was taken and transferred to 96-well injection plate loaded with equal volume of water, shaken and mixed well, and subjected to LC-MS/MS analysis, wherein injection volume was 10 μL.

[8] = inhibition of immobility time, forced swimming 1 h after single oral (intragastric) 20 mg/kg
[9] = inhibition of immobility time, forced swimming 24 h after single oral (intragastric) 20 mg/kg
[10] = brain tissue, 50 mg/kg p.o., literature (Journal of Psychopharmacology, 2019, 33, 12-24)
[11] = 1 h, read-out: 1 h inhibition rate
[12] = 24 h, read-out: 24 h inhibition rate
[13] = inhibition of immobility time, C57 mice

T1 sequence (Q12809 whole entry): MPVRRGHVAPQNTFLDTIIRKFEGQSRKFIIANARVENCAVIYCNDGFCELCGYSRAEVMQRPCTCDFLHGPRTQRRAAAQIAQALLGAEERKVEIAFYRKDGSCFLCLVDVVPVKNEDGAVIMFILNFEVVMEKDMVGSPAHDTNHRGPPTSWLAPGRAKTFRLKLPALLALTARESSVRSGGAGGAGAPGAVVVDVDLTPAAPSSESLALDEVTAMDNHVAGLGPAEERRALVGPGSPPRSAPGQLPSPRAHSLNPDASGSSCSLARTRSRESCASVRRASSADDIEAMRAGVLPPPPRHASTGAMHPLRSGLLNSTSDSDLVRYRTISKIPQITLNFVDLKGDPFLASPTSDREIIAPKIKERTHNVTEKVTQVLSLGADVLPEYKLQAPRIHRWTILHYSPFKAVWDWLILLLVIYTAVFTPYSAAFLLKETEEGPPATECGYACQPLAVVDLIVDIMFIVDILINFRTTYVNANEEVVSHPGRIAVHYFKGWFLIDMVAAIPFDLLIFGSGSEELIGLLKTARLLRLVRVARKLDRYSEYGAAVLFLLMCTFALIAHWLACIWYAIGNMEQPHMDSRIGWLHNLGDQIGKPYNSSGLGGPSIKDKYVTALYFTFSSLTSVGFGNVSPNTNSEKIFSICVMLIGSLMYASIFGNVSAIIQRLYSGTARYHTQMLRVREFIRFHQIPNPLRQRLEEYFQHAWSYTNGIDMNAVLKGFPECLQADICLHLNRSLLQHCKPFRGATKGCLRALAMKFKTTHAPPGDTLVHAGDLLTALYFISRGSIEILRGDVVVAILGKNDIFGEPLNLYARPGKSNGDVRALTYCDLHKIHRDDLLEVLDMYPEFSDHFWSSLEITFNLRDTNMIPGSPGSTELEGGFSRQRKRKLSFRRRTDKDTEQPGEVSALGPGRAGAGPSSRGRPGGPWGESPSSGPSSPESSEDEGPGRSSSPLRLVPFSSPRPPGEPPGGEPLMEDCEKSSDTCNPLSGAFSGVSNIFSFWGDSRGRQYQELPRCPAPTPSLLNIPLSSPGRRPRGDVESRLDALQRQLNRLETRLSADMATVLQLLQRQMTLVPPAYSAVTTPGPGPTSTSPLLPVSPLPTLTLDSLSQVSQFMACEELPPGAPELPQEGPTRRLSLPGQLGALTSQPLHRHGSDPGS

Structure (SMILES) | AUC0-t ([2]; 5 mg/kg i.v.) [ngh/mL] | AUC0-∞ ([2]; 5 mg/kg i.v.) [ngh/mL] | F [2] [%] | AUC0-t ([2]; 20 mg/kg p.o.) [ngh/mL] | AUC0-∞ ([2]; 20 mg/kg p.o.) [ngh/mL] | MRT ([2]; iv, 5 mg/kg i.v.) [min] | half-life ([2]; iv, 5 mg/kg i.v.) [min] | clearance ([2]; iv, 5 mg/kg i.v.) [mL/min/kg] | Vd ([2]; iv, 5 mg/kg i.v.) [L/kg] | Cmax ([2]; po, 20 mg/kg p.o.) [ng/mL] | MRT ([2]; po, 20 mg/kg p.o.) [min] | Tmax ([2]; po, 20 mg/kg p.o.) [min] | half-life ([2]; po, 20 mg/kg p.o.) [min] | 1 h inhibition rate (C57 mice [3]; [8]) [%] | 24 h inhibition rate (C57 mice [3]; [9]) [%] | inhibition in vivo at 10 mg/kg (C57 mice [5]; [11]) [%] | inhibition in vivo at 10 mg/kg (C57 mice [5]; [12]) [%] | 1 h inhibition rate (C57 mice [5]; [13]) [%] | IC50 (hERG potassium channel) [µM] | further results
Cl.N[C@@]1(c2ccccc2Cl)CCC[C@@H](O)C1=O [(2R,6R)-HNK, (2R, 6R)-HNK, reference compound] | 2085 | 2096 | 66.8 | 5589 | 5599 | 23.4 | 20.4 | 40.7 | 0.94 | 7180 | 52.5 | 5 | 55.8 | 18.4 ± 1.6 | 19.6 ± 4.4 | 31.1 | 27.4 | 31.1 ± 4.0 | – | AUC0-∞ ([1]; 10 mg/kg i.v.): 6270 ngh/mL; CL ([1]; 10 mg/kg i.v.): 27 mL/min/kg; T1/2 ([1]; 10 mg/kg i.v.): 480 min; Vss ([1]; 10 mg/kg i.v.): 7.5 L/kg; AUC0-∞ ([1]; 10 mg/kg p.o.): 2650 ngh/mL; Cmax ([1]; 10 mg/kg p.o.): 1500 ng/mL; F ([1]; 10 mg/kg p.o.): 42%; T1/2 ([1]; 10 mg/kg p.o.): 414 min; Tmax ([1]; 10 mg/kg p.o.): 10 min; Brain tissue concentration ([4]; 10 mg/kg intraperitoneally, literature (Nature, 2016, 533, 481-486; Nature, 2017, 546, E1-E5)): 2562 ng/g; Brain tissue concentration ([4]; 50 mg/kg p.o., 10 min, literature (Journal of Psychopharmacology, 2019, 33, 12-24)): 6490 to 8600 ng/g; AUC0-∞ [4, 10]: 2850 to 5190 ng·h/g; T1/2 [4, 10]: 42 min; 24 h inhibition rate (C57 mice [5]; inhibition of immobility time, forced swimming 24 h after single intraperitoneal 10 mg/kg, C57 mice): 27.4 ± 3.9%; T1/2 [6]: < 60 min
Cl.NC1(c2ccc(C(F)(F)F)cc2)CCCC(O)C1=O (stereo not shown) [Compound 46, 2-amino-6-hydroxy-2-(4-(trifluoromethyl)phenyl)cyclohexane-1-one hydrochloride] | – | – | – | – | – | – | – | – | – | – | – | – | – | 31.2 ± 4.7 | 32.3 ± 1.5 | 34.7 ± 4.1 | 43.5 | – | > 40 | –
Cl.N[C@@]1(c2cccc(OC(F)(F)F)c2F)CCC[C@@H](O)C1=O [Compound 64, (2R,6R)-2-amino-2-(2-fluoro-3-(trifluoromethoxy)phenyl)-6-hydroxycyclohexane-1-one hydrochloride] | 4817 | 4838 | 66.2 | 12708 | 12816 | 52.8 | 52.2 | 17.2 | 0.91 | 11900 | 125 | 5 | 239 | 36.5 ± 5.3 | 34.5 ± 1.0 | – | – | – | > 40 | concentration at 30 min [7]: 5740 ng/g
CNC1(c2ccccc2Cl)CCCCC1=O (stereo not shown) [Ketamine, ketamine, reference compound] | – | – | – | – | – | – | – | – | – | – | – | – | – | – | – | 29.2 | 35.4 ± 7.9 | 29.2 ± 4.6 | – | 1 h inhibition rate (C57 mice [3]; control given intraperitoneally 10 mg/kg, 1 h): 22.7 ± 0.2%; 24 h inhibition rate (C57 mice [3]; control given intraperitoneally 10 mg/kg, 24 h): 25.1 ± 2.7%; Brain tissue concentration ([4]; 30 mg/kg intraperitoneally, literature (Journal of Pharmaceutical and Biomedical Analysis, 2018, 148, 288-297)): 1929 ng/g
